US12427192B2, “Water soluble adjuvant and composition containing same” (Sumitomo Pharma Co., Ltd., priority 2019, dated 2025)

Assays:
[1] = test system: HLA-A*24:02 transgenic mouse; experiment: Test 8: in vivo adjuvant activity, vaccine e (Peptide SEQ ID No. 18), IFNγ ELISPOT; conditions: added to vaccine e; 0.4 nmol per body, twice; FIG. 5
Experimental: Evaluation of In Vivo Adjuvant Activity in HLA-A*24:02 Transgenic Mouse
The in vivo adjuvant activity of the compound of Example 1 was evaluated in the following procedure. To a vaccine prepared by mixing Peptide SEQ ID No. 18 prepared in Reference example 20 with Montanide ISA 51 VG (hereinafter, referred to as “vaccine e”) was added the compound prepared in Example 1 to prepare a vaccine. The vaccine was administered to a HLA-A*24:02 transgenic mouse, and the adjuvant activity of the vaccine was evaluated by the method of testing antigen-specific CTL induction. The TYAGCLSQIF in Peptide SEQ ID No. 18 corresponds to an antigen peptide derived from an HLA-A*24:02-restricted Or7c1 protein.
The character for inducing CTLs specific to the antigen peptide (SEQ ID No. 18) by vaccine e was evaluated by measuring whether IFNγ can be produced upon stimulation of splenocytes from the mouse with the peptide. In addition, the character for exerting in vivo adjuvant activity by the compound in Example 1 was evaluated by comparing the number of CTLs induced by vaccine e and the number of CTLs induced by the vaccine prepared by adding the compound prepared in Example 1 to vaccine e, and checking presence or absence of the increase on the number.
Specifically, Peptide of SEQ ID No. 18 was dissolved in DMSO, and then diluted with water for injection to concentrations of 3 mg/mL. […]

[2] = test system: MCA-A24/Kb-WT1 tumor cells; experiment: Test 5: enhancement of in vivo suppressive effect of vaccine on tumor growth; parameters: species or system mouse; conditions: 27 days after tumor transplantation; vaccine 7 days before and 7 days after transplantation; compared with vehicle (group a); six mice per group; 100 ng Example 1 per body in group c; FIG. 2
Experimental: Effect for Enhancing the In Vivo Suppressive Effect of Vaccine for Growth of Tumor Vaccine
A suspension of 3-methylcholanthrene in corn oil was administered to a HLA-A*24:02 transgenic mouse intradermally at the ventral region. From the tumor generated at the administration site, HLA-A*2402/Kb-expressing tumor cells were obtained. Cell lines established by stably expressing WT1 antigen peptide (SEQ ID No. 2) in the cells (herein, also referred to as MCA-A24/Kb-WT1 tumor cells) were suspended in Hanks' Balanced Salt Solution and intradermally transplanted to the ventral region of HLA-A*24:02 transgenic mouse (5×10^5 cells per mouse). The mice made to receive a vehicle (Group a), a vaccine (Group b), or a vaccine containing the compound prepared in Example 1 (Group c) were classified. Six mice per group were used. Seven days before the tumor transplantation and seven days after the tumor transplantation, for the mice of Group a, a composition comprising water for injection was emulsified with an equal volume of Montanide ISA 51 VG and the emulsion was administered intradermally at the tail base area (0.1 mL per administration per mouse). […] The tumor diameter was measured 27 days after the tumor transplantation and the tumor volume was calculated.

CCCCCNc1nc(N)nc(C)c1Cc1ccc(CN(C)CCOCCOCCOCCOCCO)cc1OC [Example 1, 1-(4-{[2-amino-4-methyl-6-(pentylamino)pyrimidin-5-yl]methyl}-3-methoxyphenyl)-2-methyl-5,8,11,14-tetraoxa-2-azahexadecan-16-ol·trifluoroacetate]
CTL counts responsive to Peptide of SEQ ID No. 18 compared with adding no compound [1]: more
growth of tumor cells (average tumor volume) [2]: more potently suppressed the growth of tumor cells
